Reference: US9233976B2, “Berbamine derivatives” (CITY OF HOPE, priority 2009, dated 2016)
Values belong to the compound of their own block, whether it stands above or below them.

What was measured:
[1] = tested on: DU145 prostate cancer cell line; test: MTS cell viability assay in DU145 cells; format: cell-based; conditions: DU145, 48 h
Protocol: (§1) IC50 of values of berbamine derivatives were determined in cancer cell lines DU145 and A2058 respectively. DU145 and A2058 cells (5,000 cells/well) were treated with berbamine derivatives in a dose-dependent manner (0.1 to 20 μM in 1% DMSO for 48 h. Then, MTS assay for cell viability were carried out to determine the IC50 values. Four samples were tested for each berbamine derivatives at each concentration in each cell line, and the averaged data were shown in Table 1 and FIGS. 1-8.

[2] = tested on: A2058 human melanoma cell line; test: MTS cell viability assay in A2058 cells; format: cell-based; conditions: A2058, 48 h
Protocol: as §1

[3] = tested on: Imatinib-resistant leukemia (K562/ADR) cells; test: Cell viability in imatinib-resistant leukemia cells; format: cell-based
Protocol: Imatinib-resistant leukemia (K562/ADR) cells (5,000 cells/well) were treated with different concentrations (0.6-40 μM in DMSO) of BA #1, BA #3 and BA #4 respectively for 48 hours and cell viability was measured.

[4] = tested on: Human normal dermal fibroblast (NHDF) cells; test: Cell viability in normal dermal fibroblasts; format: cell-based
[5] = tested on: human erythroleukemia HEL (homozygous JAK2 V617F mutation) cells; test: MTS cell viability assay in HEL cells; format: cell-based; conditions: HEL Jak2 V617 mutation, 48 h
Protocol: HEL Jak2 V617 mutation cells (10,000 cells/well) were treated with different concentration (0.1 μM to 20 μM in 1% DMSO of berbamine, BA #3, and BA #10 respectively for 48 h. Then, MTS assay for cell viability were carried out to determine the IC50 values. Four samples were tested for each test compound at each concentration, and the averaged data were shown in Table 3 and FIGS. 10-11.

[6] = tested on: human acute lymphoblastic leukemia (Molt4) cells; test: MTS cell viability assay in Molt4 cells; format: cell-based; conditions: MOLT-4, Molt4, 48 h
Protocol: (§2) Each type of cells (5,000 or 10,000 cells/well) were treated with different concentration (0.1 μM to 20 μM in 1% DMSO of berbamine and BA #3 respectively for 48 h. Then, MTS assay for cell viability were carried out to determine the IC50 values. Four samples were tested for each test compound at each concentration for each type of cells, and the averaged data were shown in Table 4 and FIGS. 12-13.

[7] = tested on: human acute lymphocytic leukemia (Reh) cells; test: MTS cell viability assay in Reh cells; format: cell-based; conditions: 48 h
Protocol: as §2

[8] = tested on: multiple myeloma (U266) cells; test: MTS cell viability assay in U266 cells; format: cell-based; conditions: Homo sapiens, U-266, U266, 48 h
Protocol: as §2

melanoma A375 cells = test: MTS cell viability assay in A375 cells; format: cell-based; conditions: Homo sapiens, A-375, A375, 48 h
Protocol: as §2

melanoma G361 cells = test: MTS cell viability assay in G361 cells; format: cell-based; conditions: Homo sapiens, G-361, G361, 48 h
Protocol: as §2

melanoma SK-MEL-28 cells = test: MTS cell viability assay in SK-MEL-28 cells; format: cell-based; conditions: Homo sapiens, SK-MEL-28, 48 h
Protocol: as §2

melanoma SK-MEL-5 cells = test: MTS cell viability assay in SK-MEL-5 cells; format: cell-based; conditions: Homo sapiens, SK-MEL-5, 48 h
Protocol: as §2

[9] = tested on: ovarian cancer OVCAR5 cells; test: MTS cell viability assay in OVCAR5 cells; format: cell-based; conditions: Homo sapiens, OVCAR-5, OVCAR5, 48 h
Protocol: as §2

[10] = tested on: ovarian cancer SKOV3 cells; test: MTS cell viability assay in SKOV3 cells; format: cell-based; conditions: Homo sapiens, SK-OV-3, SKOV3, 48 h
Protocol: as §2

[11] = tested on: pancreatic cancer (PANC-1) cells; test: MTS cell viability assay in PANC-1 cells; format: cell-based; conditions: Homo sapiens, PANC-1, 48 h
Protocol: as §2

Jak2/Stat3 signaling [12] = test: Western blot of Jak2/Stat3 signaling in A2058 melanoma cells; format: cell-based; conditions: 0-10 μM for 4 hour or 10 μM for 0-24 hour
Protocol: (§3) To determine whether BA #3 block Jak2/Stat3 or Src/Stat3 signaling pathway, A2058 melanoma (A and B) and erythroleukemia HEL cells were treated with BA #3 in a dose- or time-dependent manner. Western blots were performed with specific antibodies to p-Jak2, p-Src, p-Stat3, p-AKT, Jak2, Src, Stat3 and AKT.

Jak2/Stat3 signaling [13] = test: Western blot of Jak2/Stat3 signaling in erythroleukemia HEL cells; format: cell-based; conditions: 0-10 μM, 4 hour
Protocol: as §3

Src kinase = Src kinase (Homo sapiens, UniProt P12931); test: In vitro Src kinase assay with peptide substrate; format: biochemical; conditions: activated recombinant protein with peptide substrate and ATP
Src kinase, sequence (P12931 whole entry): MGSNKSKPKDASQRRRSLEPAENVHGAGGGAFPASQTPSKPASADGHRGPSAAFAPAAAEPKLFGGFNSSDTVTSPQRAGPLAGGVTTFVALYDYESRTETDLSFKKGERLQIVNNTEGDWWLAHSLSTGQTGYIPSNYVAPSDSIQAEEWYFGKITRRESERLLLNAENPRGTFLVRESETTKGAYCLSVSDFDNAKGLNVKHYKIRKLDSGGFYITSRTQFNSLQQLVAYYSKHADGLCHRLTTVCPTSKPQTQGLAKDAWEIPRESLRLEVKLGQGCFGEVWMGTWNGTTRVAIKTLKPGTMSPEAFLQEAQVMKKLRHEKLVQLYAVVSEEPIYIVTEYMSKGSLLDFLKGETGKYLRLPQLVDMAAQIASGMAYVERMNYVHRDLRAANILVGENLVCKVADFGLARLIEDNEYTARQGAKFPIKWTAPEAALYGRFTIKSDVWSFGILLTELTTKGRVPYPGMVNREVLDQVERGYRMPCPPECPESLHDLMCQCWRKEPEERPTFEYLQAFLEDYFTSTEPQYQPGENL
Description: (§4) To determine whether BA #3 inhibits activities of Src kinase, Jak2 kinase, Jak1 kinase and Tyk2 kinase in vitro, activated recombinant proteins were mixed with peptide substrates and ATP in the absence or the presence of BA #3. […] However, BA #3 reduced Jak2 autophosphorylation kinase activity at Tyr1007/1008 sites in vitro in the reaction of mixture of non-activated recombinant Jak2 protein and ATP in the absence of substrates (FIG. 19).

Jak2 kinase = Jak2 kinase (Homo sapiens, UniProt O60674); test: In vitro Jak2 kinase assay with peptide substrate; format: biochemical; conditions: activated recombinant protein with peptide substrate and ATP
Jak2 kinase, sequence (O60674 whole entry): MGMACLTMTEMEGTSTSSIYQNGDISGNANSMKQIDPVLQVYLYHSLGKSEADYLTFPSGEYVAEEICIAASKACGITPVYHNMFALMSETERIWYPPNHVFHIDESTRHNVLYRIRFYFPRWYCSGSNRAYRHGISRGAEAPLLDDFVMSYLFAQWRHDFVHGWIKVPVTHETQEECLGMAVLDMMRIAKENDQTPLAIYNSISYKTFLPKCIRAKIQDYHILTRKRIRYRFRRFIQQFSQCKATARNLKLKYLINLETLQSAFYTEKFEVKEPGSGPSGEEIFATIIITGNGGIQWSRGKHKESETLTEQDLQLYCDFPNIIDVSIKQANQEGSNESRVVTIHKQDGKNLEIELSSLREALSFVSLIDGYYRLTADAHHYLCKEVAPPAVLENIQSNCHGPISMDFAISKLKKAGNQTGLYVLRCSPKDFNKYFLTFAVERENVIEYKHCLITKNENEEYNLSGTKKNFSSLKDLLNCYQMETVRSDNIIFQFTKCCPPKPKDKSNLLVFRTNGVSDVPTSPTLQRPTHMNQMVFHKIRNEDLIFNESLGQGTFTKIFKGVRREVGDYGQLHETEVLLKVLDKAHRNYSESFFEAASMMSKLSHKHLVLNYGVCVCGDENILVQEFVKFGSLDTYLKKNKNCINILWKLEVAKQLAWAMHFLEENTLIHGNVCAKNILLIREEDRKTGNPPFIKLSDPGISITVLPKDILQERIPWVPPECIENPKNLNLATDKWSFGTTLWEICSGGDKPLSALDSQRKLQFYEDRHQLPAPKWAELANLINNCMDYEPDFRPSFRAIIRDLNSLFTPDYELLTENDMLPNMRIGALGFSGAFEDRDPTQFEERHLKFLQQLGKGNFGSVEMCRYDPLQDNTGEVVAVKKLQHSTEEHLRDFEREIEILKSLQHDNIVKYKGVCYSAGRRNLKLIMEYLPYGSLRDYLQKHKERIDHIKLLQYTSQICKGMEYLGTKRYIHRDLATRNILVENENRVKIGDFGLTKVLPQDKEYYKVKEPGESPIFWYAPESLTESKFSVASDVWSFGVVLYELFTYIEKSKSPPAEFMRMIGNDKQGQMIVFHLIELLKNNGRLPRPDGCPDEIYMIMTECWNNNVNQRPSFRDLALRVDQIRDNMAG
Description: as §4

Jak1 kinase = Jak1 kinase (Homo sapiens, UniProt P23458); test: In vitro Jak1 kinase assay with peptide substrate; format: biochemical; conditions: activated recombinant protein with peptide substrate and ATP
Jak1 kinase, sequence (P23458 whole entry): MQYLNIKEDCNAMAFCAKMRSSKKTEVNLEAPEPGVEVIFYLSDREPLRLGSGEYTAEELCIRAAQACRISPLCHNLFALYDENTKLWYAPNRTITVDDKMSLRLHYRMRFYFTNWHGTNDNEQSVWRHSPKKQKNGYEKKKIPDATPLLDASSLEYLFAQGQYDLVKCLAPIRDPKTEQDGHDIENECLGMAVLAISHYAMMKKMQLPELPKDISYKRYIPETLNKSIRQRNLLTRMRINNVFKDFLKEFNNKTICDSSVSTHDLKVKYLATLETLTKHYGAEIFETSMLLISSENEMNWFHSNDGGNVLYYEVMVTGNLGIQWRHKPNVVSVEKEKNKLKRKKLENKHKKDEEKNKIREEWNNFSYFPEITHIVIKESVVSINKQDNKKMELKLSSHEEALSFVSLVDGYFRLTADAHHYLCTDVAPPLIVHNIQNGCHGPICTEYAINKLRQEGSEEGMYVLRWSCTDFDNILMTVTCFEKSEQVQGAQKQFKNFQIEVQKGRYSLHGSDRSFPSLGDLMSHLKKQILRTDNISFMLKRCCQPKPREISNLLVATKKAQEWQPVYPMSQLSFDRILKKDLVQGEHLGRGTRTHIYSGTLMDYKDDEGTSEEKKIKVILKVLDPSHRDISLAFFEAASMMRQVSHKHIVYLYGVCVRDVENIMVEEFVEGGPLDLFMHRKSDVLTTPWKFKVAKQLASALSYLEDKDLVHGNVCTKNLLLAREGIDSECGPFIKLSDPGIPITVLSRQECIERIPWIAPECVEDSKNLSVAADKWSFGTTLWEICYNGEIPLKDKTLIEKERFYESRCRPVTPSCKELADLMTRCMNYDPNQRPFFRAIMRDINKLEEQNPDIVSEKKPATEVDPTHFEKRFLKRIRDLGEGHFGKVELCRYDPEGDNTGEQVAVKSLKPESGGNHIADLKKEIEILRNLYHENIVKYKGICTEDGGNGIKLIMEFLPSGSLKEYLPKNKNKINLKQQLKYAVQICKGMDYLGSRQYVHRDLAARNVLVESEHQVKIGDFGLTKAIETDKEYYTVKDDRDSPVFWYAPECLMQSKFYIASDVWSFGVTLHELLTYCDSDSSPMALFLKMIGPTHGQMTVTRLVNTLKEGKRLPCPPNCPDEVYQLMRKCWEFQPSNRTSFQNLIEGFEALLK
Description: as §4

Tyk2 kinase = Tyk2 kinase (Homo sapiens, UniProt P29597); test: In vitro Tyk2 kinase assay with peptide substrate; format: biochemical; conditions: activated recombinant protein with peptide substrate and ATP
Tyk2 kinase, sequence (P29597 whole entry): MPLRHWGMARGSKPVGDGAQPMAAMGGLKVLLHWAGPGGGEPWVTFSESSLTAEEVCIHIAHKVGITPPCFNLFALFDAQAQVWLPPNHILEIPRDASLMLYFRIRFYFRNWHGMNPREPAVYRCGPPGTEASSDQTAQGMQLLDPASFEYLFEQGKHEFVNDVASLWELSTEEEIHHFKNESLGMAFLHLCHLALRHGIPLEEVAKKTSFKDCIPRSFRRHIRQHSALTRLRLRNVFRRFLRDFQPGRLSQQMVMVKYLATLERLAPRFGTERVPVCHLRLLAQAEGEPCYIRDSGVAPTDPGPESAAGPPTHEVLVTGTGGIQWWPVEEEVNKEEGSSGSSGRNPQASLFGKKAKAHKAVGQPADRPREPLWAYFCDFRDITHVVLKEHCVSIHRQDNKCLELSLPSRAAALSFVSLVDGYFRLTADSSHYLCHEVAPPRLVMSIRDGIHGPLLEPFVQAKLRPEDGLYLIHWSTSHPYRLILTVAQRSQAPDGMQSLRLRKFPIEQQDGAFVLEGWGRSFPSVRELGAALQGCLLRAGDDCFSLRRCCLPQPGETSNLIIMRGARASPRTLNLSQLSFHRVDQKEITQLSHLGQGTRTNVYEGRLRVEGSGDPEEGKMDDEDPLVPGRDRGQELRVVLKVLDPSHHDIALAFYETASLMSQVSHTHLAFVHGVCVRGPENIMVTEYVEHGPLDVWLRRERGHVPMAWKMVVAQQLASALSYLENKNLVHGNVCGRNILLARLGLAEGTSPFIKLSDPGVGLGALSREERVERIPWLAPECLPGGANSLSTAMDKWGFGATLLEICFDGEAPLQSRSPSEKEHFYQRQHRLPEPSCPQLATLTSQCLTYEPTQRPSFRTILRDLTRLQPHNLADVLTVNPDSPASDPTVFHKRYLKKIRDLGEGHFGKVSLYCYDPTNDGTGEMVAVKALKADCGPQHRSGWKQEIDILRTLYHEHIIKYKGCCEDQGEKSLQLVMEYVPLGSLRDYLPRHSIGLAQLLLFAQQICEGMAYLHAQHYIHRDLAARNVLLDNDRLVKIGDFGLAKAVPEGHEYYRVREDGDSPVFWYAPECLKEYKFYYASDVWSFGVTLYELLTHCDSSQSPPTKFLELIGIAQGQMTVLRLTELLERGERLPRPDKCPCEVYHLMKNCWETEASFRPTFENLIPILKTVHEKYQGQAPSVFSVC
Description: as §4

[14] = biological target: non-activated recombinant Jak2 protein (autophosphorylation at Tyr1007/1008) (Homo sapiens, UniProt O60674); test: In vitro Jak2 autophosphorylation kinase assay; format: biochemical; conditions: non-activated recombinant Jak2 and ATP, no substrate, densitometry; read-out: IC50 for inhibition of autophosphorylation kinase activity
non-activated recombinant Jak2 protein (autophosphorylation at Tyr1007/1008), sequence (O60674 whole entry): as the sequence (O60674 whole entry) above
Description: as §4, with “FIG. 19. In vitro Jak2 autophosphorylation kinase assay of BA #3. A) Autophosphorylation of Jak2 at Tyr1007/1008 was required for its catalytic activity, non-activated recombinant Jak2 protein was mixed with ATP in the absence or presence of BA #3; B) inhibitory activity of Jak2 autophosphorylation based on the densitometry of FIG. 19(A). To” for “To”

Mcl-1 = test: Western blot of Mcl-1 protein; format: cell-based; conditions: 5 μM, 24 h
Protocol: (§5) To determine whether BA #3 down-regulates Stat3 downstream anti-apototic proteins Mcl-1 and Bcl-xL, cells were treated with BA #3 in a dose-dependent manner for 24 h. Western blots were performed with specific antibodies to Mcl-1 and Bcl-xL.

Bcl-xL = test: Western blot of Bcl-xL protein; format: cell-based; conditions: 5 μM, 24 h
Protocol: as §5

A2058 cells = test: Annexin V-FITC apoptosis assay; format: cell-based; conditions: 0-10 μM, 48 hours
Protocol: A2058 cells were treated with BA #3 in a dose dependent manner (0-10 μM) for 48 hours.

[15] = Maximum tolerated dose (MTD) study, body weight; format: in vivo; conditions: mice, oral, 50 mg/kg and 100 mg/kg every day for 5 days
Protocol: Three test groups of mice (four mice per group) were orally administrated with vehicle only, 50 mg/kg BA #3 and 100 mg/kg BA #3 respectively every day for 5 days. Mice were weighed every day. Two sets of experiments were carried out (FIGS. 22(A) and (B)).

cancer cell lines = test: IC50 in cancer cell lines tested (summary statement); format: cell-based; conditions: summary over cell lines tested
Description: For example, berbamine derivatives (e.g. BA #3) show significant (at least 10-fold) improvement in activity over berbamine in cancer cell lines tested (e.g. K562/ADR). Berbamine derivatives (e.g. BA #3) also show inhibition of Jak2/Stat3 signaling in cancer cell lines (e.g. A2058, erythroleukemia HEL cells), and show down-regulation of Mcl-1 and Bcl-xL proteins.

SMILES: COc1cc2c3cc1Oc1c(OC)c(OC)cc4c1[C@@H](Cc1ccc(OCCCNC(=O)c5cncs5)c(c1)Oc1ccc(cc1)C[C@@H]3N(C)CC2)N(C)CC4 [BA #1]
IC50 [1]: 9.4 µM
IC50 [2]: 7.4 µM
IC50 ([3]; 48 hours): 6.4 µM

SMILES: COc1cc2c3cc1Oc1c(OC)c(OC)cc4c1[C@@H](Cc1ccc(OCCCNC(=O)c5cncs5)c(c1)Oc1ccc(cc1)C[C@@H]3N(C)CC2)N(C)CC4 [BA #2]
IC50 [1]: 15.2 µM
IC50 [2]: 14.6 µM

SMILES: COc1cc2c3cc1Oc1c(OC)c(OC)cc4c1[C@@H](Cc1ccc(OCCCN5C(=O)c6ccccc6C5=O)c(c1)Oc1ccc(cc1)C[C@@H]3N(C)CC2)N(C)CC4 [BA #3]
IC50 ([1]; Homo sapiens, DU-145, 48 h): 3.4 µM
IC50 ([2]; Homo sapiens): 2.9 µM
improvement in activity over berbamine [3]: at least 10 fold
IC50 ([3]; Homo sapiens, K562/Adr, 48 h): 1.1 µM
IC50 ([4]; Homo sapiens, 48 h): 7.5 µM
IC50 [5]: 3.2 µM
IC50 [6]: 3.9 µM
IC50 [7]: 2.9 µM
IC50 [8]: 6.7 µM
IC50 (melanoma A375 cells): 3.7 µM
IC50 (melanoma G361 cells): 3.1 µM
IC50 (melanoma SK-MEL-28 cells): 3 µM
IC50 (melanoma SK-MEL-5 cells): 3.3 µM
IC50 [9]: 2.8 µM
IC50 [10]: 3.9 µM
IC50 [11]: 6.4 µM
Jak2/Stat3 signaling (phosphorylations of Jak, Src, Stat3 and AKT) (Jak2/Stat3 signaling [12]): inhibited Jak2/Stat3 signaling
Jak2/Stat3 signaling (phosphorylations of Jak, Src, Stat3 and AKT) (Jak2/Stat3 signaling [13]): inhibited Jak2/Stat3 signaling
inhibition of Src kinase activity (Src kinase): did not inhibit
inhibition of Jak2 kinase activity (Jak2 kinase): did not inhibit
inhibition of Jak1 kinase activity (Jak1 kinase): did not inhibit
inhibition of Tyk2 kinase activity (Tyk2 kinase): did not inhibit
IC50 [14]: 0.69 µM
Mcl-1 protein level (Mcl-1): down-regulated
Bcl-xL protein level (Bcl-xL): down-regulated
apoptosis (Annexin V-FITC) (A2058 cells): induced apoptosis
body weight versus vehicle [15]: no significant weight differences

SMILES: COc1cc2c3cc1Oc1c(OC)c(OC)cc4c1[C@@H](Cc1ccc(OCCCNC(=O)c5cncs5)c(c1)Oc1ccc(cc1)C[C@@H]3N(C)CC2)N(C)CC4 [BA #4]
IC50 [1]: 15.5 µM
IC50 [2]: 14.3 µM
IC50 ([3]; 48 hours): 3 µM

SMILES: COc1cc2c3cc1Oc1c(OC)c(OC)cc4c1[C@@H](Cc1ccc(OCCCNC(=O)c5cncs5)c(c1)Oc1ccc(cc1)C[C@@H]3N(C)CC2)N(C)CC4 [BA #5]
IC50 [1]: 7.9 µM
IC50 [2]: 3.9 µM

SMILES: COc1cc2c3cc1Oc1c(OC)c(OC)cc4c1[C@@H](Cc1ccc(OCCCNC(=O)c5cncs5)c(c1)Oc1ccc(cc1)C[C@@H]3N(C)CC2)N(C)CC4 [BA #6]
IC50 [1]: 3.5 µM
IC50 [2]: 3.4 µM

SMILES: COc1cc2c3cc1Oc1c(OC)c(OC)cc4c1[C@@H](Cc1ccc(OCCCNC(=O)c5cncs5)c(c1)Oc1ccc(cc1)C[C@@H]3N(C)CC2)N(C)CC4 [BA #7]
IC50 [1]: 6.9 µM
IC50 [2]: 3.5 µM

Further lines, with some results ahead:

IC50 [1]: 6.6 µM
IC50 [2]: 7.1 µM
SMILES: COc1cc2c3cc1Oc1c(OC)c(OC)cc4c1[C@@H](Cc1ccc(OCCCNC(=O)c5cncs5)c(c1)Oc1ccc(cc1)C[C@@H]3N(C)CC2)N(C)CC4 [BA #8]

IC50 [1]: 7.7 µM
IC50 [2]: 8.1 µM
SMILES: COc1cc2c3cc1Oc1c(OC)c(OC)cc4c1[C@@H](Cc1ccc(OCCCNC(=O)c5cncs5)c(c1)Oc1ccc(cc1)C[C@@H]3N(C)CC2)N(C)CC4 [BA #9]

IC50 [1]: 3.7 µM
IC50 [2]: 3.4 µM
IC50 [5]: 2.8 µM
SMILES: COc1cc2c3cc1Oc1c(OC)c(OC)cc4c1[C@@H](Cc1ccc(OCCCNC(=O)c5cncs5)c(c1)Oc1ccc(cc1)C[C@@H]3N(C)CC2)N(C)CC4 [BA #10]
IC50 ([4]; Homo sapiens, 48 h): 9.4 µM

IC50 [1]: 12.3 µM
IC50 [2]: 8.3 µM
SMILES: COc1cc2c3cc1Oc1c(OC)c(OC)cc4c1[C@@H](Cc1ccc(OCCCNC(=O)c5cncs5)c(c1)Oc1ccc(cc1)C[C@@H]3N(C)CC2)N(C)CC4 [BA #11]

IC50 [1]: 5.6 µM
IC50 [2]: 3.3 µM
SMILES: COc1cc2c3cc1Oc1c(OC)c(OC)cc4c1[C@@H](Cc1ccc(OCCCNC(=O)c5cncs5)c(c1)Oc1ccc(cc1)C[C@@H]3N(C)CC2)N(C)CC4 [BA #12]
IC50 ([4]; 48 hours): 9.2 µM

IC50 [1]: 13.6 µM
IC50 [2]: 8.2 µM
SMILES: COc1cc2c3cc1Oc1c(OC)c(OC)cc4c1[C@@H](Cc1ccc(OCCCNC(=O)c5cncs5)c(c1)Oc1ccc(cc1)C[C@@H]3N(C)CC2)N(C)CC4 [BA #13]

IC50 ([1]; Homo sapiens, DU-145, 48 h): > 20 µM
IC50 ([2]; Homo sapiens): > 20 µM
IC50 ([3]; Homo sapiens, K562/Adr, 48 h): 8.9 µM
IC50 [5]: 19.6 µM
IC50 (cancer cell lines): > 20 µM
SMILES: COc1cc2c3cc1Oc1c(OC)c(OC)cc4c1[C@@H](Cc1ccc(O)c(c1)Oc1ccc(cc1)C[C@@H]3N(C)CC2)N(C)CC4 [Berbamine]
IC50 ([4]; Homo sapiens, 48 h): 24 µM

IC50 ([1]; Homo sapiens, DU-145, 48 h): > 20 µM
IC50 ([2]; Homo sapiens): > 20 µM
SMILES: O=C1c2ccccc2C(=O)N1CCCOc1ccccc1 [Phthaloyl derivative, reference compound]
